Columns and labels:
Assay type in all cases: functional
OVCAR-4 = test: Growth inhibition of human OVCAR4 cells at 10 uM after 48 hrs by sulforhodamine B assay; details: OVCAR-4, 48 h, read-out: GI
NCI/ADR-RES = test: Growth inhibition of human NCI/ADR-RES cells at 10 uM after 48 hrs by sulforhodamine B assay; details: read-out: GI
A549 = test: Growth inhibition of human A549/ATCC cells at 10 uM after 48 hrs by sulforhodamine B assay; details: A549, 48 h, read-out: GI
RXF 393 = test: Growth inhibition of human RXF393 cells at 10 uM after 48 hrs by sulforhodamine B assay; details: RXF 393, 48 h, read-out: GI
SF-539 = test: Growth inhibition of human SF539 cells at 10 uM after 48 hrs by sulforhodamine B assay; details: SF-539, 48 h, read-out: GI
MCF7 = test: Growth inhibition of human MCF7 cells at 10 uM after 48 hrs by sulforhodamine B assay; details: MCF7, 48 h, read-out: GI
T47D = test: Growth inhibition of human T47D cells at 10 uM after 48 hrs by sulforhodamine B assay; details: read-out: GI
SNB-75 = test: Growth inhibition of human SNB75 cells at 10 uM after 48 hrs by sulforhodamine B assay; details: SNB-75, 48 h, read-out: GI
UACC-62 = test: Growth inhibition of human UACC62 cells at 10 uM after 48 hrs by sulforhodamine B assay; details: UACC-62, 48 h, read-out: GI
IGROV-1 = test: Growth inhibition of human IGROV1 cells at 10 uM after 48 hrs by sulforhodamine B assay; details: IGROV-1, 48 h, read-out: GI
SK-MEL-2 = test: Growth inhibition of human SK-MEL-2 cells at 10 uM after 48 hrs by sulforhodamine B assay; details: SK-MEL-2, 48 h, read-out: GI
KM12 = test: Growth inhibition of human KM12 cells at 10 uM after 48 hrs by sulforhodamine B assay; details: KM12, 48 h, read-out: GI
BT-549 = test: Growth inhibition of human BT549 cells at 10 uM after 48 hrs by sulforhodamine B assay; details: BT-549, 48 h, read-out: GI
DU-145 = test: Growth inhibition of human DU145 cells at 10 uM after 48 hrs by sulforhodamine B assay; details: DU-145, 48 h, read-out: GI
NCI-H23 = test: Growth inhibition of human NCI-H23 cells at 10 uM after 48 hrs by sulforhodamine B assay; details: NCI-H23, 48 h, read-out: GI
SW-620 = test: Growth inhibition of human SW620 cells at 10 uM after 48 hrs by sulforhodamine B assay; details: SW-620, 48 h, read-out: GI
UO-31 = test: Growth inhibition of human UO31 cells at 10 uM after 48 hrs by sulforhodamine B assay; details: UO-31, 48 h, read-out: GI
MOLT-4 = test: Growth inhibition of human MOLT4 cells at 10 uM after 48 hrs by sulforhodamine B assay; details: MOLT-4, 48 h, read-out: GI
HCT-116 = test: Growth inhibition of human HCT116 cells at 10 uM after 48 hrs by sulforhodamine B assay; details: HCT-116, 48 h, read-out: GI
MDA-MB-468 = test: Growth inhibition of human MDA-MB-468 cells at 10 uM after 48 hrs by sulforhodamine B assay; details: MDA-MB-468, 48 h, read-out: GI
OVCAR-5 = test: Growth inhibition of human OVCAR5 cells at 10 uM after 48 hrs by sulforhodamine B assay; details: OVCAR-5, 48 h, read-out: GI
LOX IMVI = test: Growth inhibition of human LOXIMVI cells at 10 uM after 48 hrs by sulforhodamine B assay; details: read-out: GI
UACC-257 = test: Growth inhibition of human UACC257 cells at 10 uM after 48 hrs by sulforhodamine B assay; details: UACC-257, 48 h, read-out: GI
NCI-H460 = test: Growth inhibition of human NCI-H460 cells at 10 uM after 48 hrs by sulforhodamine B assay; details: NCI-H460, 48 h, read-out: GI
SNB-19 = test: Growth inhibition of human SNB19 cells at 10 uM after 48 hrs by sulforhodamine B assay; details: SNB-19, 48 h, read-out: GI
HOP-92 = test: Growth inhibition of human HOP92 cells at 10 uM after 48 hrs by sulforhodamine B assay; details: HOP-92, 48 h, read-out: GI
OVCAR-3 = test: Growth inhibition of human OVCAR3 cells at 10 uM after 48 hrs by sulforhodamine B assay; details: OVCAR-3, 48 h, read-out: GI
K562 = test: Growth inhibition of human K562 cells at 10 uM after 48 hrs by sulforhodamine B assay; details: K562, 48 h, read-out: GI
OVCAR-8 = test: Growth inhibition of human OVCAR8 cells at 10 uM after 48 hrs by sulforhodamine B assay; details: OVCAR-8, 48 h, read-out: GI
SF-295 = test: Growth inhibition of human SF295 cells at 10 uM after 48 hrs by sulforhodamine B assay; details: SF-295, 48 h, read-out: GI
TK-10 = test: Growth inhibition of human TK10 cells at 10 uM after 48 hrs by sulforhodamine B assay; details: TK-10, 48 h, read-out: GI
CAKI-1 = test: Growth inhibition of human CAKI-1 cells at 10 uM after 48 hrs by sulforhodamine B assay; details: CAKI-1, 48 h, read-out: GI
MDA-MB-231 = test: Growth inhibition of human MDA-MB-231/ATCC cells at 10 uM after 48 hrs by sulforhodamine B assay; details: MDA-MB-231, 48 h, read-out: GI
CCRF-CEM = test: Growth inhibition of human CCRF-CEM cells at 10 uM after 48 hrs by sulforhodamine B assay; details: read-out: GI
SF-268 = test: Growth inhibition of human SF268 cells at 10 uM after 48 hrs by sulforhodamine B assay; details: SF-268, 48 h, read-out: GI
HCT-15 = test: Growth inhibition of human HCT15 cells at 10 uM after 48 hrs by sulforhodamine B assay; details: HCT-15, 48 h, read-out: GI
Malme-3M = test: Growth inhibition of human MALME-3M cells at 10 uM after 48 hrs by sulforhodamine B assay; details: read-out: GI
U-251 = test: Growth inhibition of human U251 cells at 10 uM after 48 hrs by sulforhodamine B assay; details: U-251, 48 h, read-out: GI
NCI-H522 = test: Growth inhibition of human NCI-H522 cells at 10 uM after 48 hrs by sulforhodamine B assay; details: NCI-H522, 48 h, read-out: GI
ACHN = test: Growth inhibition of human ACHN cells at 10 uM after 48 hrs by sulforhodamine B assay; details: read-out: GI

Compound: CO[C@@H]1[C@@H](OC)N(S(=O)(=O)c2ccc(Cl)cc2)C(=O)N1S(=O)(=O)c1ccc(Cl)cc1 (relative stereo)
- inhibition of growth at 10 µM (OVCAR-4): 21.3%
- inhibition of growth at 10 µM (NCI/ADR-RES): 13.8%
- inhibition of growth at 10 µM (A549): 21.7%
- inhibition of growth at 10 µM (RXF 393): -11.5%
- inhibition of growth at 10 µM (SF-539): -15.2%
- inhibition of growth at 10 µM (MCF7): 16%
- inhibition of growth at 10 µM (T47D): 9.2%
- inhibition of growth at 10 µM (SNB-75): 19.7%
- inhibition of growth at 10 µM (UACC-62): 42.1%
- inhibition of growth at 10 µM (IGROV-1): 23.1%
- inhibition of growth at 10 µM (SK-MEL-2): 13.1%
- inhibition of growth at 10 µM (KM12): 3.47%
- inhibition of growth at 10 µM (BT-549): 2.35%
- inhibition of growth at 10 µM (DU-145): -9.28%
- inhibition of growth at 10 µM (NCI-H23): 8.09%
- inhibition of growth at 10 µM (SW-620): 1.4%
- inhibition of growth at 10 µM (UO-31): 39.4%
- inhibition of growth at 10 µM (MOLT-4): 43.5%
- inhibition of growth at 10 µM (HCT-116): 33.1%
- inhibition of growth at 10 µM (MDA-MB-468): 6.61%
- inhibition of growth at 10 µM (OVCAR-5): 8.25%
- inhibition of growth at 10 µM (LOX IMVI): 5.58%
- inhibition of growth at 10 µM (UACC-257): -11.6%
- inhibition of growth at 10 µM (NCI-H460): -1.36%
- inhibition of growth at 10 µM (SNB-19): 2.72%
- inhibition of growth at 10 µM (HOP-92): 49.9%
- inhibition of growth at 10 µM (OVCAR-3): -4.48%
- inhibition of growth at 10 µM (K562): 23.2%
- inhibition of growth at 10 µM (OVCAR-8): 9.39%
- inhibition of growth at 10 µM (SF-295): 34%
- inhibition of growth at 10 µM (TK-10): 7.51%
- inhibition of growth at 10 µM (CAKI-1): 67.5%
- inhibition of growth at 10 µM (MDA-MB-231): 23.4%
- inhibition of growth at 10 µM (CCRF-CEM): 15.5%
- inhibition of growth at 10 µM (SF-268): 1.84%
- inhibition of growth at 10 µM (HCT-15): 19.8%
- inhibition of growth at 10 µM (Malme-3M): 6.65%
- inhibition of growth at 10 µM (U-251): 6.07%
- inhibition of growth at 10 µM (NCI-H522): 26.7%
- inhibition of growth at 10 µM (ACHN): 9.71%

Reference: ChEMBL document CHEMBL1955806, “Design, synthesis, single-crystal and preliminary antitumor activity of novel arenesulfonylimidazolidin-2-ones” (2012)
